This is an account of results in PMC3618987, “From BACE1 Inhibitor to Multifunctionality of Tryptoline and Tryptamine Triazole Derivatives for Alzheimer’s Disease” (Molecules, 2012).

Entries after “also recorded” stand apart in the source; their conditions may differ. A value given as a limit tells only on which side of the number the result lay.

A short description of experiment [1]: Free radical scavenging assay (DPPH). As for the experimental part: The test samples were prepared in 50% DMSO at 500 µM. Seventy microliters of DPPH solution (500 µM in methanol) was added to 96 well plate. The assay mixture was adjusted to 80 µL volume by methanol. After adjusting the volume, 20 µL of test compounds was added to each well. The reaction plate was incubated at room temperature in dark for 30 min. The absorbance was measured at 517 nm by using infinite 200 pro^TM, Tecan. Ascorbic acid was used as a positive control. Percent inhibition was calculated and compounds showing activity were evaluated for the IC50 values.

In experiment [2] the target is T1, β-Secretase (BACE1) (Homo sapiens, UniProt P56817).
T1 construct: purchased Sino Biological
T1 sequence (P56817 46-501): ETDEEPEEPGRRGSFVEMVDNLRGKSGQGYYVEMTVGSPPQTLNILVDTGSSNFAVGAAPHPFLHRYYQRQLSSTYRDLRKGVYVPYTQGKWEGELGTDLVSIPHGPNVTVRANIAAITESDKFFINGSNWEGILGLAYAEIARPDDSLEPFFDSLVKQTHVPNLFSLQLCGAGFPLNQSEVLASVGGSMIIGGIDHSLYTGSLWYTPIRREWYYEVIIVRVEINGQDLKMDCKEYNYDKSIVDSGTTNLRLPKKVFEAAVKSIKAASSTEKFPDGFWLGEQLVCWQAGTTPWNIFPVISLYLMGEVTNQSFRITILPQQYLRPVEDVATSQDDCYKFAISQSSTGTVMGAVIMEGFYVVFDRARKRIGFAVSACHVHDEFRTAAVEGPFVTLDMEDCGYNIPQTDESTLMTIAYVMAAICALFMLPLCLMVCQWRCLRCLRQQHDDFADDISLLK
Description: β-Secretase inhibition assay (fluorogenic substrate IV). Conditions: for inhibition at 25 µM: read-out: BACE1 % Inhibition (at 25 µM) (±SEM). The format is biochemical. The method, then:
β-Secretase enzyme was reconstituted with 50 mM Tris (pH 7.5), 10% glycerol to yield concentration of 0.5 unit/µL. The enzyme stock solution was diluted with 100 mM sodium acetate buffer (pH 4.5) to 0.01 unit/µL. Thirty microliters of enzyme solution were added to each well that contained 20 µL of 5% DMSO of test compound. Then, fifty microliters of 50 µM β-secretase substrate IV from Calbiochem were added to the reaction plate. […] The assays were run in triplicate.

Experiment [3] in a line: Fe (II) chelation capacity assay (ferrozine). As for the experimental part: An aqueous solution of 0.2 mM ferrous sulphate was prepared. Fifty microliters of this solution was added to 96 well plate, then 40 µL of 500 µM of test compounds in 50% DMSO were added to each well followed by DI water to adjust the volume to 150 µL. The mixtures were incubated at room temperature for 10 min. After incubation, 50 µL of 1 mM ferrozine (Sigma) was added to the reaction mixture. The absorbance was measured at 562 nm by using infinite 200 pro^TM, Tecan. EDTA was used as a positive control. Chelation capacity of each compounds were calculated. Compounds having chelating capacity over than 50% were evaluated for stoichiometric ratio of compound: metal.

In experiment [4] the target is T2, amyloid-β (1-42) peptide (Homo sapiens, UniProt P05067).
T2 construct: Stock solution of amyloid-β (1-42) peptide (Anaspec; 1384 µM in 1% NH4OH); purchased Anaspec
T2 sequence (P05067 672-713 limits assumed): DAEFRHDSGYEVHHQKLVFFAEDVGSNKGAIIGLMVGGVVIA
Description: Amyloid β aggregation assay (ThT fluorescence). The experiment is classed as biochemical. Conditions: Aβ(1-42), 48 h; for inhibition at 100 µM: read-out: Anti-Aβ aggregation % Inhibition (at 100 µM) (±SEM). As for the experimental part: Nine microliters amyloid-β solution was added to a greiner transparent 96 well plate. One microliter of each test compounds (1,000 µM in DMSO) were added to each well and mixed gently by tapping. The final concentrations of each compound were 100 µM in 10% DMSO. The reaction plate was incubated in dark at 37 °C for 48 h. After incubation, 200 µL of 5 µM ThT (Sigma) in 50 mM Tris buffer (pH 7.4) was added to each well. The fluorescence was measured at Ex = 446 nm and Em = 490 nm by using SpectraMax Gemini EM^TM [30]. The assays were run in triplicate.

Experiment [5] has as its target T2, amyloid-β (1-42) peptide. Description: Amyloid β aggregation assay (ThT fluorescence). The format is biochemical. Conditions: Aβ(1-42), read-out: Anti-Aβ aggregation IC50.
Experiment [6] deals with SH-SY5Y cells. As to the kind of experiment: Protection against Aβ1-42 induced neuronal cell death, MTT viability assay. Conditions: compound 1 μM. The experiment is classed as cell-based. As for the experimental part:
The SH-SY5Y cells were cultured in a medium containing minimum essential medium (MEM): F-12 (1:1), 10% fetal bovine serum, MEM non-essential amino acids (0.5×), 0.5 mM sodium pyruvate and 100 units/ml of penicillin and 100 μg/mL of streptomycin. The cells were maintained under a humidified incubator with 5% CO2 in air at 37 °C.
SH-SY5Y cells were seeded in 96-well plates (2 × 10^4 cells per well) for 24 h. […] The aggregated β-amyloid was prepared by incubating in a medium without serum, penicillin and streptomycin at 37 °C for 72 h. The cells treated with aggregated β-amyloid were incubated for 24 h, 15 µL of MTT reagent (5 mg/mL MTT in serum free medium containing […]) was added to each well and incubated at 37 °C for 3 h. The medium was removed from each well. One hundred microlitres of 0.04 N HCl in isopropanol was added to each well to dissolve blue formazan crystals, which is the product of MTT catalyzed by mitochondrial dehydrogenase. The absorbance was measured at 570/630 nm using a Synergy^TM HT multi-detection microplate reader (Bio-Tek Instruments, Winooski, VT, USA).

`O=C1O[C@H]([C@@H](O)CO)C(O)=C1O` [Ascorbic acid, reference compound]: in experiment [1], 94.9 µM corresponded to half-maximal inhibition (IC50) and the “DPPH % Inhibition (at 100 µM) (±SEM)” value was 53.64 (±0.11) %.
For `CC(C)(C)c1ccc(-c2cn(C[C@@H]3Cc4c([nH]c5ccccc45)CN3)nn2)cc1` [Compound 6a, (S)-3-((4-(4-tert-Butylphenyl)-1H-1,2,3-triazol-1-yl)methyl)-2,3,4,9-tetrahydro-1H-pyrido[3,4-b] indole], in experiment [2], it took 19.8 µM to reach half-maximal inhibition (IC50) and the inhibition at 25 µM amounted to 68%. In addition, the “Fe chelation % Capacity (at 100 µM) (±SEM)” value in experiment [3] is listed as 9.67 (±0.32) %.
`COc1ccc2cc(-c3cn(C[C@@H]4Cc5c([nH]c6ccccc56)CN4)nn3)ccc2c1` [Compound 6b, (S)-3-((4-(6-Methoxynaphthalen-2-yl)-1H-1,2,3-triazol-1-yl)me-thyl)-2,3,4,9-tetrahydro-1H-pyrido-[3,4-b]indole]: in experiment [2], the IC50 amounted to 18.9 µM and the inhibition at 25 µM came out at 73.6%. The inhibition at 100 µM in experiment [4] turned out to be 7.19%. Moreover, the “Fe chelation % Capacity (at 100 µM) (±SEM)” value in experiment [3] is 12.35 (±0.68) %.
As for `Clc1ccc(-c2cn(C[C@@H]3Cc4c([nH]c5ccccc45)CN3)nn2)cc1Cl` [Compound 6c, (S)-3-((4-(3,4-Dichlorophenyl)-1H-1,2,3-triazol-1-yl)methyl)-2,3,4,9-tetrahydro-1H-pyrido[3,4-b]-indole], in experiment [2], half-maximal inhibition (IC50) was put at 18 µM and the inhibition at 25 µM turned out to be 78.9%. In experiment [4], the inhibition at 100 µM is 10.1%. The “Fe chelation % Capacity (at 100 µM) (±SEM)” value in experiment [3] was 15.88 (±0.21) %.
Consider `O=C(NCc1cn(C[C@@H]2Cc3c([nH]c4ccccc34)CN2)nn1)c1ccccc1C(=O)c1ccc(O)cc1` [Compound 6d], for which the inhibition at 25 µM in experiment [2] stood at 14.1%. Besides, the “Fe chelation % Capacity (at 100 µM) (±SEM)” value in experiment [3] was 32.86 (±0.19) %. For the same compound, the “DPPH % Inhibition (at 100 µM) (±SEM)” value in experiment [1] is 2.81 (±0.37) %.
In the same order, the values of `O=C(CCc1ccc(O)cc1)NCc1cn(C[C@@H]2Cc3c([nH]c4ccccc34)CN2)nn1` [Compound 6e, (S)-3-((4-(N-(((4-Hydroxyphenyl)propanoyl)azyl)methyl)-1H-1,2,3-triazol-1-yl)methyl)-2,3,4,9-tetra-hydro-1H-pyrido[3,4-b]ind ole] are 12.6%, 20.63 (±0.35) % and 5.45 (±0.33) %.
As for `COc1cc(/C=C/C(=O)NCc2cn(C[C@@H]3Cc4c([nH]c5ccccc45)CN3)nn2)ccc1O` [Compound 6g, (S)-3-((4-(N-(((E)-(3-Methoxy-4-hydroxyphenyl)propenoyl)azyl)methyl)-1H-1,2,3-triazol-1-yl)-methyl)-2,3,4,9-tetrahydro-1H-pyrido[3,4-b]indole], the inhibition at 25 µM in experiment [2] was 21.1%. For the same compound, in experiment [4], the inhibition at 100 µM is more than 50%. The “Fe chelation % Capacity (at 100 µM) (±SEM)” value in experiment [3] was 8.88 (±0.25) %. Also, in experiment [1], the IC50 is 106 µM and the “DPPH % Inhibition (at 100 µM) (±SEM)” value is recorded as 47.03 (±0.12) %. In addition, the IC50 in experiment [5] came out at 82.9 µM.
With `O=C(/C=C/c1ccc(O)c(O)c1)NCc1cn(C[C@@H]2Cc3c([nH]c4ccccc34)CN2)nn1` [Compound 6h, (S)-3-((4-(N-(((E)-(3,4-Dihydroxyphenyl)propenoyl)azyl)methyl)-1H-1,2,3-triazol-1-yl)methyl)-2,3,4,9-tetrahydro-1H-pyrido[3,4-b]indole], in experiment [2], the inhibition at 25 µM is 21.7%. Besides, the “Fe chelation % Capacity (at 100 µM) (±SEM)” value in experiment [3] is recorded as 42.74 (±0.30) %. Besides, the IC50 in experiment [1] worked out at 42.9 µM; in experiment [5], 29.9 µM. The “DPPH % Inhibition (at 100 µM) (±SEM)” value in experiment [1] is 92.29 (±0.02) %. For the same compound, in experiment [6], the “Protective effect against Aβ1-42 induced neuronal cell death (MTT viability)” value (from here on “Protective effect”) was “significantly greater than those of the potent single target compound, BACE1 inhibitor IV; also recorded: decrease cell death to a greater extent than BACE1 inhibitor IV; also recorded: better than that of single targeted ligands”.
Turning to `CC(C)(C)c1ccc(-c2cn(C[C@@H](N)Cc3c[nH]c4ccccc34)nn2)cc1` [Compound 12a, (S)-1-(4-(4-tert-Butylphenyl)-1H-1,2,3-triazol-1-yl)-3-(1H-indol-3-yl)propan-2-amine], in experiment [2], the inhibition at 25 µM came out at 18.9%. The inhibition at 100 µM in experiment [4] worked out at 17.8%. In addition, the “Fe chelation % Capacity (at 100 µM) (±SEM)” value in experiment [3] is given as 42.65 (±1.07) %.
In the case of `N[C@@H](Cc1c[nH]c2ccccc12)Cn1cc(CNC(=O)c2ccccc2C(=O)c2ccc(O)cc2)nn1` [Compound 12d, (S)-N-((1-(2-Amino-3-(1H-indol-3-yl)propyl)-1H-1,2,3-triazol-4-yl)methyl)-2-(4-hydroxybenzoyl)-benzamide], in experiment [2], the inhibition at 25 µM was found to be 33%. Moreover, in experiment [3], the “Fe chelation % Capacity (at 100 µM) (±SEM)” value is 13.87 (±0.59) %. The “DPPH % Inhibition (at 100 µM) (±SEM)” value in experiment [1] is 1.56 (±0.51) %. Besides, the IC50 in experiment [5] amounted to 47.5 µM.
In the case of `N[C@@H](Cc1c[nH]c2ccccc12)Cn1cc(CNC(=O)CCc2ccc(O)cc2)nn1` [Compound 12e, (S)-N-((1-(2-Amino-3-(1H-indol-3-yl)propyl)-1H-1,2,3-triazol-4-yl)methyl)-3-(4-hydroxyphenyl)propanamide], the inhibition at 25 µM in experiment [2] was 7.53%. For the same compound, in experiment [4], the inhibition at 100 µM amounted to 36%. Moreover, in experiment [3], the “Fe chelation % Capacity (at 100 µM) (±SEM)” value is given as 41.42 (±1.13) %.
For `N[C@@H](Cc1c[nH]c2ccccc12)Cn1cc(CNC(=O)/C=C/c2ccc(O)c(O)c2)nn1` [Compound 12h, (S,E)-N-((1-(2-Amino-3-(1H-indol-3-yl)propyl)-1H-1,2,3-triazol-4-yl)methyl)-3-(3,4-dihydroxy-phenyl)acrylamide], in experiment [2], the inhibition at 25 µM stood at 40%. In experiment [1], the IC50 came out at 92.7 µM and the “DPPH % Inhibition (at 100 µM) (±SEM)” value is listed as 50.58 (±0.17) %. For the same compound, the “Protective effect” value in experiment [6] was “significantly greater than those of the potent single target compound, BACE1 inhibitor IV; also recorded: decrease cell death to a greater extent than BACE1 inhibitor IV; also recorded: better than that of single targeted ligands”. Moreover, in experiment [5], the IC50 worked out at 56.4 µM.
As for `COc1cc(/C=C/C(=O)CC(=O)/C=C/c2ccc(O)c(OC)c2)ccc1O` [Curcumin, reference compound], in experiment [4], the inhibition at 100 µM was determined as 82.9%.
With `O=C(O)CN(CCN(CC(=O)O)CC(=O)O)CC(=O)O` [EDTA, reference compound], the “Fe chelation % Capacity (at 100 µM) (±SEM)” value in experiment [3] is 98.00 (±0.34) %.
In the case of `C[C@@H](NC(=O)c1cc(C(=O)N[C@@H](Cc2ccccc2)[C@H](O)CNC2CC2)cc(N(C)S(C)(=O)=O)c1)c1ccccc1` [Inh IV, reference compound], the “Protective effect” value in experiment [6] was “improved cell viability”.
For “(S)-1-(1H-Indol-3-yl)-3-(4-(6-methoxynaphthalen-2-yl)-1H-1,2,3-triazol-1-yl)propan-2-amine [Compound 12b]”, the “BACE1 % Inhibition (at 25 µM) (±SEM)” value in experiment [2] (25 µM) is listed as 30.42 (±3.54) %. Further, the “Anti-Aβ aggregation % Inhibition (at 100 µM) (±SEM)” value in experiment [4] is 34.02 (±10.13) %. Moreover, in experiment [3], the “Fe chelation % Capacity (at 100 µM) (±SEM)” value is listed as 10.54 (±0.22) %.
